# Measured values taken from PubChem BioAssay (NCI).
#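 96-well plates; 48 h exposure; 5 concentrations. Endpoints by linear interpolation between flanking doses. Not reached: highest tested concentration assigned. Definition used: TGI = concentration required for complete inhibition of growth.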
# Columns and labels:
# Assay in all cases: NCI tumour cell line growth inhibition, 48 h
# [1] = system: A498 renal
# [2] = system: HT29 colon
# [3] = system: HCC-2998 colon
# [4] = system: UACC-257 melanoma
# [5] = system: OVCAR-4 ovarian
# [6] = system: TK-10 renal
# [7] = system: SF-295 CNS
# [8] = system: NCI-H460 lung
# [9] = system: HCT-116 colon
# [10] = system: CCRF-CEM leukemia
# [11] = system: SK-OV-3 ovarian
# [12] = system: NCI-H522 lung
# [13] = system: U251 CNS
# [14] = system: SF-268 CNS
# [15] = system: IGROV1 ovarian
# [16] = system: HCT-15 colon
# [17] = system: SK-MEL-28 melanoma
# [18] = system: HS 578T breast
# [19] = system: OVCAR-5 ovarian
# [20] = system: HOP-62 NSCLC
# [21] = system: PC-3 prostate
# [22] = system: RPMI-8226 leukemia
# [23] = system: NCI/ADR-RES ovarian
# [24] = system: SN12C renal
# [25] = system: SK-MEL-2 melanoma
# [26] = system: COLO 205 colon
# [27] = system: SNB-75 CNS
# [28] = system: HL-60(TB) leukemia
# [29] = system: T-47D breast
# [30] = system: EKVX NSCLC
# [31] = system: MALME-3M melanoma
# [32] = system: OVCAR-8 ovarian
# [33] = system: DU-145 prostate
# [34] = system: MDA-MB-231 breast
# [35] = system: SNB-19 CNS
# [36] = system: ACHN renal
# [37] = system: MDA-MB-435
# [38] = system: CAKI-1 renal
# [39] = system: MDA-N
# [40] = system: UACC-62 melanoma
# [41] = system: SK-MEL-5 melanoma
# [42] = system: KM12 colon
# [43] = system: M14 melanoma
# [44] = system: MCF7 breast
# [45] = system: SR leukemia
# [46] = system: NCI-H23 lung
# [47] = system: A549 NSCLC
# [48] = system: MOLT-4 leukemia
# [49] = system: 786-0 renal
# [50] = system: NCI-H226 lung
# [51] = system: RXF 393 renal
# [52] = system: SF-539 CNS
# [53] = system: HOP-92 NSCLC
# [54] = system: K-562 leukemia
# [55] = system: SW-620 colon
# [56] = system: UO-31 renal
# [57] = system: OVCAR-3 ovarian
# [58] = system: LOX IMVI melanoma
# [59] = system: BT-549 breast
smiles,measurement,setting,value
O=C1OC[C@@H]2Cc3c([nH]c4ccccc34)[C@@H](c3cc(O)c(O)c(O)c3)N12,TGI,[1],48 µM
same,TGI,[2],> 100 µM
same,TGI,[3],> 100 µM
same,TGI,[4],9.73 µM
same,TGI,[5],26.1 µM
same,TGI,[6],> 100 µM
same,TGI,[7],34 µM
same,TGI,[8],> 100 µM
same,TGI,[9],61.5 µM
same,TGI,[10],54.3 µM
same,TGI,[11],> 100 µM
same,TGI,[12],22.8 µM
same,TGI,[13],59.8 µM
same,TGI,[14],> 100 µM
same,TGI,[15],49.7 µM
same,TGI,[16],> 100 µM
same,TGI,[17],42.9 µM
same,TGI,[18],76.2 µM
same,TGI,[19],46.2 µM
same,TGI,[20],67.8 µM
same,TGI,[21],> 100 µM
same,TGI,[22],65.8 µM
same,TGI,[23],72.3 µM
same,TGI,[24],98.9 µM
same,TGI,[25],18.9 µM
same,TGI,[26],42.6 µM
same,TGI,[27],60.9 µM
same,TGI,[28],15 µM
same,TGI,[29],> 100 µM
same,TGI,[30],> 100 µM
same,TGI,[31],49.7 µM
same,TGI,[32],41.8 µM
same,TGI,[33],> 100 µM
same,TGI,[34],42.3 µM
same,TGI,[35],69.1 µM
same,TGI,[36],> 100 µM
same,TGI,[37],25.9 µM
same,TGI,[38],> 100 µM
same,TGI,[39],82.5 µM
same,TGI,[40],75.5 µM
same,TGI,[41],29.2 µM
same,TGI,[42],> 100 µM
same,TGI,[43],36.7 µM
same,TGI,[44],84.1 µM
same,TGI,[45],61.9 µM
same,TGI,[46],98.6 µM
same,TGI,[47],> 100 µM
same,TGI,[48],85.9 µM
same,TGI,[49],56.1 µM
same,TGI,[50],49.9 µM
same,TGI,[51],45.6 µM
same,TGI,[52],37.9 µM
same,TGI,[53],> 100 µM
same,TGI,[54],58.7 µM
same,TGI,[55],53.4 µM
same,TGI,[56],> 100 µM
COc1ccc(C(=O)C(Br)C(Br)C(=O)O)cc1 (configuration not stated),TGI,[1],> 100 µM
same,TGI,[2],31 µM
same,TGI,[4],> 100 µM
same,TGI,[57],57.4 µM
same,TGI,[5],> 100 µM
same,TGI,[6],> 100 µM
same,TGI,[7],> 100 µM
same,TGI,[8],> 100 µM
same,TGI,[9],44.9 µM
same,TGI,[11],> 100 µM
same,TGI,[12],34.9 µM
same,TGI,[13],> 100 µM
same,TGI,[14],> 100 µM
same,TGI,[15],> 100 µM
same,TGI,[16],> 100 µM
same,TGI,[17],> 100 µM
same,TGI,[18],> 100 µM
same,TGI,[19],> 100 µM
same,TGI,[20],> 100 µM
same,TGI,[21],> 100 µM
same,TGI,[22],53.2 µM
same,TGI,[23],> 100 µM
same,TGI,[24],> 100 µM
same,TGI,[25],> 100 µM
same,TGI,[26],46.8 µM
same,TGI,[27],> 100 µM
same,TGI,[29],> 100 µM
same,TGI,[30],> 100 µM
same,TGI,[31],46.2 µM
same,TGI,[32],> 100 µM
same,TGI,[33],> 100 µM
same,TGI,[34],> 100 µM
same,TGI,[35],> 100 µM
same,TGI,[36],> 100 µM
same,TGI,[37],> 100 µM
same,TGI,[38],> 100 µM
same,TGI,[39],> 100 µM
same,TGI,[40],> 100 µM
same,TGI,[41],> 100 µM
same,TGI,[42],> 100 µM
same,TGI,[43],> 100 µM
same,TGI,[44],> 100 µM
same,TGI,[46],> 100 µM
same,TGI,[47],> 100 µM
same,TGI,[58],54 µM
same,TGI,[48],36.1 µM
same,TGI,[49],97.6 µM
same,TGI,[50],> 100 µM
same,TGI,[51],56.4 µM
same,TGI,[59],63.7 µM
same,TGI,[52],51.8 µM
same,TGI,[53],> 100 µM
same,TGI,[54],82.9 µM
same,TGI,[55],52.3 µM
COC(=O)[C@H](Cc1ccccc1)NP(=O)(O)OCC1OC(n2cc(C)c(=O)[nH]c2=O)CC1N=[N+]=[N-] (some centres not stated),TGI,[1],> 100 µM
same,TGI,[2],> 100 µM
same,TGI,[3],> 100 µM
same,TGI,[4],> 100 µM
same,TGI,[57],> 100 µM
same,TGI,[5],> 100 µM
same,TGI,[6],> 100 µM
same,TGI,[7],> 100 µM
same,TGI,[8],> 100 µM
same,TGI,[9],> 100 µM
same,TGI,[10],> 100 µM
same,TGI,[11],> 100 µM
same,TGI,[12],> 100 µM
same,TGI,[13],> 100 µM
same,TGI,[14],> 100 µM
same,TGI,[15],> 100 µM
same,TGI,[16],> 100 µM
same,TGI,[17],> 100 µM
same,TGI,[18],> 100 µM
same,TGI,[19],> 100 µM
same,TGI,[20],> 100 µM
same,TGI,[21],> 100 µM
same,TGI,[22],> 100 µM
same,TGI,[23],> 100 µM
same,TGI,[24],> 100 µM
same,TGI,[25],> 100 µM
same,TGI,[26],> 100 µM
same,TGI,[27],> 100 µM
same,TGI,[28],> 100 µM
same,TGI,[29],> 100 µM
same,TGI,[30],> 100 µM
same,TGI,[31],> 100 µM
same,TGI,[32],> 100 µM
same,TGI,[33],> 100 µM
same,TGI,[34],> 100 µM
same,TGI,[35],> 100 µM
same,TGI,[36],> 100 µM
same,TGI,[37],> 100 µM
same,TGI,[38],> 100 µM
same,TGI,[39],> 100 µM
same,TGI,[41],> 100 µM
same,TGI,[42],> 100 µM
same,TGI,[43],> 100 µM
same,TGI,[44],> 100 µM
same,TGI,[45],> 100 µM
same,TGI,[46],> 100 µM
same,TGI,[47],> 100 µM
same,TGI,[58],> 100 µM
same,TGI,[48],> 100 µM
same,TGI,[49],> 100 µM
same,TGI,[50],> 100 µM
same,TGI,[51],> 100 µM
same,TGI,[52],> 100 µM
same,TGI,[53],> 100 µM
same,TGI,[54],> 100 µM
same,TGI,[55],> 100 µM
same,TGI,[56],> 100 µM
